Measured values reported in ChEMBL document CHEMBL3045802, “Synthesis and in vitro antitumor activity of new quinoline, pyrimido[4,5-b]quinoline, [1,2,3]triazino[4,5-b]quinoline, and [1,2,4]triazolo[2,3:3,4]pyrimido[6,5-b]quinoline analogs” (2013).

Assays:
Type in all cases: functional
SK-MEL-28 = test: Cytotoxicity against Homo sapiens (human) SK-MEL-28 cells assessed as growth inhibition at 10 uM after 48 hr by coulter counter analysis; conditions: SK-MEL-28, 48 h, read-out: GI
Malme-3M = test: Cytotoxicity against Homo sapiens (human) MALME-3M cells assessed as growth inhibition at 10 uM after 48 hr by coulter counter analysis; conditions: read-out: GI
LOX IMVI = test: Cytotoxicity against Homo sapiens (human) LOXIMVI cells assessed as growth inhibition at 10 uM after 48 hr by coulter counter analysis; conditions: read-out: GI
SNB-19 = test: Cytotoxicity against Homo sapiens (human) SNB19 cells assessed as growth inhibition at 10 uM after 48 hr by coulter counter analysis; conditions: SNB-19, 48 h, read-out: GI
OVCAR-4 = test: Cytotoxicity against Homo sapiens (human) OVCAR4 cells assessed as growth inhibition at 10 uM after 48 hr by coulter counter analysis; conditions: OVCAR-4, 48 h, read-out: GI
UACC-257 = test: Cytotoxicity against Homo sapiens (human) UACC257 cells assessed as growth inhibition at 10 uM after 48 hr by coulter counter analysis; conditions: UACC-257, 48 h, read-out: GI
Hs-578T = test: Cytotoxicity against Homo sapiens (human) Hs578T cells assessed as growth inhibition at 10 uM after 48 hr by coulter counter analysis; conditions: read-out: GI
MDA-MB-231 = test: Cytotoxicity against Homo sapiens (human) MDA-MB-231 cells assessed as growth inhibition at 10 uM after 48 hr by coulter counter analysis; conditions: MDA-MB-231, 48 h, read-out: GI
UO-31 = test: Cytotoxicity against Homo sapiens (human) UO31 cells assessed as growth inhibition at 10 uM after 48 hr by coulter counter analysis; conditions: UO-31, 48 h, read-out: GI
RXF 393 = test: Cytotoxicity against Homo sapiens (human) RXF393 cells assessed as growth inhibition at 10 uM after 48 hr by coulter counter analysis; conditions: RXF 393, 48 h, read-out: GI
CAKI-1 = test: Cytotoxicity against Homo sapiens (human) Caki1 cells assessed as growth inhibition at 10 uM after 48 hr by coulter counter analysis; conditions: CAKI-1, 48 h, read-out: GI
[1] = Cytotoxicity against Homo sapiens (human) NCI-ADR-RES cells assessed as growth inhibition at 10 uM after 48 hr by coulter counter analysis; conditions: read-out: GI
OVCAR-8 = test: Cytotoxicity against Homo sapiens (human) OVCAR8 cells assessed as growth inhibition at 10 uM after 48 hr by coulter counter analysis; conditions: OVCAR-8, 48 h, read-out: GI
CCRF-CEM = test: Cytotoxicity against Homo sapiens (human) CCRF-CEM cells assessed as growth inhibition at 10 uM after 48 hr by coulter counter analysis; conditions: read-out: GI
KM12 = test: Cytotoxicity against Homo sapiens (human) KM12 cells assessed as growth inhibition at 10 uM after 48 hr by coulter counter analysis; conditions: KM12, 48 h, read-out: GI
SW-620 = test: Cytotoxicity against Homo sapiens (human) SW620 cells assessed as growth inhibition at 10 uM after 48 hr by coulter counter analysis; conditions: SW-620, 48 h, read-out: GI
HCT-116 = test: Cytotoxicity against Homo sapiens (human) HCT116 cells assessed as growth inhibition at 10 uM after 48 hr by coulter counter analysis; conditions: HCT-116, 48 h, read-out: GI
NCI-H522 = test: Cytotoxicity against Homo sapiens (human) NCI-H522 cells assessed as growth inhibition at 10 uM after 48 hr by coulter counter analysis; conditions: NCI-H522, 48 h, read-out: GI
NCI-H460 = test: Cytotoxicity against Homo sapiens (human) NCI-H460 cells assessed as growth inhibition at 10 uM after 48 hr by coulter counter analysis; conditions: NCI-H460, 48 h, read-out: GI
HOP-62 = test: Cytotoxicity against Homo sapiens (human) HOP62 cells assessed as growth inhibition at 10 uM after 48 hr by coulter counter analysis; conditions: HOP-62, 48 h, read-out: GI
A549 = test: Cytotoxicity against Homo sapiens (human) A549 cells assessed as growth inhibition at 10 uM after 48 hr by coulter counter analysis; conditions: A549, 48 h, read-out: GI
SR = test: Cytotoxicity against Homo sapiens (human) SR cells assessed as growth inhibition at 10 uM after 48 hr by coulter counter analysis; conditions: read-out: GI
K562 = test: Cytotoxicity against Homo sapiens (human) K562 cells assessed as growth inhibition at 10 uM after 48 hr by coulter counter analysis; conditions: K562, 48 h, read-out: GI
UACC-62 = test: Cytotoxicity against Homo sapiens (human) UACC62 cells assessed as growth inhibition at 10 uM after 48 hr by coulter counter analysis; conditions: UACC-62, 48 h, read-out: GI

Row | Compound | inhibition of growth at 10 µM (SK-MEL-28) [%] | inhibition of growth at 10 µM (Malme-3M) [%] | inhibition of growth at 10 µM (LOX IMVI) [%] | inhibition of growth at 10 µM (SNB-19) [%] | inhibition of growth at 10 µM (OVCAR-4) [%] | inhibition of growth at 10 µM (UACC-257) [%] | inhibition of growth at 10 µM (Hs-578T) [%] | inhibition of growth at 10 µM (MDA-MB-231) [%] | inhibition of growth at 10 µM (UO-31) [%] | inhibition of growth at 10 µM (RXF 393) [%] | inhibition of growth at 10 µM (CAKI-1) [%] | inhibition of growth at 10 µM [1] [%] | inhibition of growth at 10 µM (OVCAR-8) [%] | inhibition of growth at 10 µM (CCRF-CEM) [%] | inhibition of growth at 10 µM (KM12) [%] | inhibition of growth at 10 µM (SW-620) [%] | inhibition of growth at 10 µM (HCT-116) [%] | inhibition of growth at 10 µM (NCI-H522) [%] | inhibition of growth at 10 µM (NCI-H460) [%] | inhibition of growth at 10 µM (HOP-62) [%] | further results
1 | O=c1[nH]nnc2c1C(c1ccc(Cl)cc1)C1=C(CCCC1)N2 (configuration not stated) | < 10 | < 10 | < 10 | < 10 | < 10 | < 10 | < 10 | < 10 | 43.4 | < 10 | 16.1 | < 10 | < 10 | < 10 | < 10 | < 10 | < 10 | 13.5 | < 10 | < 10 | inhibition of growth at 10 µM (A549): < 10%; inhibition of growth at 10 µM (SR): < 10%; inhibition of growth at 10 µM (K562): < 10%
2 | N#CCc1nc2c(c(=O)[nH]1)C(c1ccc(Cl)cc1)C1=C(CCCC1)N2 (configuration not stated) | < 10 | < 10 | < 10 | < 10 | < 10 | < 10 | < 10 | < 10 | 37.7 | < 10 | < 10 | < 10 | < 10 | < 10 | < 10 | < 10 | < 10 | 11.4 | < 10 | 12.5 | inhibition of growth at 10 µM (A549): < 10%; inhibition of growth at 10 µM (SR): < 10%; inhibition of growth at 10 µM (K562): < 10%
3 | CN(C)c1ccc(-c2nc3c(c(=O)[nH]2)C(c2ccc(Cl)cc2)C2=C(CCCC2)N3)cc1 (configuration not stated) | < 10 | < 10 | < 10 | < 10 | < 10 | < 10 | < 10 | 12 | 47.4 | < 10 | < 10 | < 10 | < 10 | < 10 | < 10 | < 10 | < 10 | 15.8 | < 10 | 12.8 | inhibition of growth at 10 µM (A549): < 10%; inhibition of growth at 10 µM (SR): < 10%; inhibition of growth at 10 µM (K562): < 10%
4 | COc1ccc(-c2nc3c(c(=O)[nH]2)C(c2ccc(Cl)cc2)C2=C(CCCC2)N3)cc1OC (configuration not stated) | < 10 | < 10 | < 10 | < 10 | < 10 | < 10 | < 10 | 12.6 | 41.7 | < 10 | < 10 | < 10 | < 10 | < 10 | < 10 | < 10 | < 10 | 10.1 | < 10 | 10.2 | inhibition of growth at 10 µM (A549): < 10%; inhibition of growth at 10 µM (SR): < 10%; inhibition of growth at 10 µM (K562): < 10%
5 | COc1ccc(C2C3=C(CCCC3)Nc3nc(-c4ccc(N(C)C)cc4)[nH]c(=O)c32)cc1OC (configuration not stated) | < 10 | < 10 | < 10 | < 10 | < 10 | < 10 | < 10 | < 10 | 29.4 | < 10 | 10.5 | < 10 | < 10 | < 10 | < 10 | < 10 | < 10 | 14.4 | < 10 | < 10 | inhibition of growth at 10 µM (A549): < 10%; inhibition of growth at 10 µM (SR): < 10%; inhibition of growth at 10 µM (K562): < 10%
6 | Oc1ccc(-c2nc3c4c(ncn3n2)NC2=C(CCCC2)C4c2ccc(Cl)cc2)cc1 (configuration not stated) | < 10 | 13 | 14.3 | < 10 | < 10 | < 10 | 14.1 | 20.5 | 29 | < 10 | 24.6 | < 10 | < 10 | 13.2 | < 10 | < 10 | < 10 | < 10 | < 10 | 16.6 | inhibition of growth at 10 µM (UACC-62): 17.4%; inhibition of growth at 10 µM (A549): < 10%; inhibition of growth at 10 µM (SR): < 10%; inhibition of growth at 10 µM (K562): < 10%
7 | COc1ccc(C2C3=C(CCCC3)Nc3ncn4nc(-c5ccccc5)nc4c32)cc1OC (configuration not stated) | < 10 | < 10 | < 10 | < 10 | < 10 | < 10 | < 10 | 12.6 | 38.7 | 19.9 | 13.1 | < 10 | 14.7 | < 10 | < 10 | < 10 | < 10 | 31.4 | < 10 | < 10 | inhibition of growth at 10 µM (UACC-62): < 10%; inhibition of growth at 10 µM (A549): 12.3%; inhibition of growth at 10 µM (SR): < 10%; inhibition of growth at 10 µM (K562): < 10%
8 | COc1ccc(C2C3=C(CCCC3)Nc3ncn4nc(-c5ccc(O)cc5)nc4c32)cc1OC (configuration not stated) | < 10 | < 10 | < 10 | < 10 | < 10 | < 10 | < 10 | 12.8 | 29.3 | < 10 | < 10 | < 10 | < 10 | < 10 | < 10 | < 10 | < 10 | 16.4 | < 10 | < 10 | inhibition of growth at 10 µM (UACC-62): < 10%; inhibition of growth at 10 µM (A549): < 10%; inhibition of growth at 10 µM (SR): < 10%; inhibition of growth at 10 µM (K562): < 10%
